The text below walks through data of patent publication US20190046490A1, “METHODS OF TREATING LACTOSE INTOLERANCE” (Nogra Pharma Limited, priority 2016, published 2019).

One data set concerns LCT mRNA. As to the kind of experiment: Quantitative PCR of LCT mRNA expression in Caco-2 cells. Format: cell-based, human. The note with it: for LCT mRNA expression relative to control (qPCR): 24 hours, normalized to GAPDH. On the procedure:
(§1) Caco-2 (colonic adenocarcinoma) cells were grown in Dulbecco's Modified Eagle's Medium (DMEM, Invitrogen, Life Technologies, Cergy-Pontoise, France) supplemented with 20% foetal calf serum (FCS, Dutscher, Brumath, France), 1% penicillin-streptomycin (5 ml/l) (Invitrogen, Life technologies) and 1% non-essential amino acids (5 ml/l) (Invitrogen, Life technologies). All cell lines were cultured as confluent monolayers at 37° C. in a controlled, 5% CO2 atmosphere.
(§2) For cell stimulations, 1×10^6 cells per well were seeded in 6-well plates. Cells were serum deprived for 16 hours prior to stimulation in order to synchronize the cells. Cells were treated with GED (Nogra Pharma Ltd, Ireland), pioglitazone (1 μM, Sigma-Aldrich) or CLA (various concentrations, Sigma-Aldrich). When necessary, the DMSO vehicle (Sigma-Aldrich) was used as control. After 24 hours of stimulation, cells were washed three times with sterile PBS before RNA extraction. Cell stimulations were performed in 4 replicates for microarray analysis and in 3, 4 or 6 replicates for other stimulations.
(§3) Cells were lysed with lysis buffer (RA1, Macherey-Nagel) containing 1% β-mercaptoethanol. Total RNA was extracted with a Nucleospin RNA kit (Macherey-Nagel, Hoerdt, France). After RNAse inactivation, total RNA was cleaned of genomic DNA traces by DNAse treatment and eluted in RNAse-free, DEPC-water. The purity of the RNA was evaluated by UV spectroscopy on a Nanodrop system (Nyxor Biotech, Paris, France) from 220 to 350 nm. Before microarray experiments, RNAs were also profiled on an Agilent 2100 bioanalyzer. One μg of total RNA with a minimum concentration of 50 ng/μl was used in the microarray and qRT-PCR analysis.
(§4) Expression of genes of interest was quantified by quantitative PCR (qPCR) of corresponding reverse transcribed mRNA. One μg of total RNA was reverse-transcribed into cDNA using the High Capacity cDNA Archive kit (Applied Biosystems). Amplification was performed using an ABI PRISM 7000 sequence detection system (Applied Biosystem) using Power SYBR® Green PCR master Mix (Applied Biosystem). Primer pairs for each human transcript were chosen with qPrimer depot software (at primerdepot.nci.nih.gov.). Quantification of qPCR signals was performed using ΔCt relative quantification method using GAPDH as a reference gene for human and rat samples and β-Actin for mouse samples. Values were represented in terms of relative quantity of mRNA level variation or fold increase compared to control conditions.
In general terms: Real-time PCR tracks product formation cycle by cycle.

The test system of a further data set is LCT gene. In words: Transcriptome microarray analysis of LCT mRNA expression in Caco-2 cells treated with PPARγ modulators. Format: cell-based, human. The note with it: vs unstimulated cells. On the procedure: as §1, §2, §3
Dual-colour gene expression microarrays were used to compare the cRNA from the samples. 44,000 genes were screened. The RNAs from the samples were first reverse-transcribed into cDNA (Affinity-Script RT, Agilent), which were then used as the substrate for the synthesis and amplification of cRNA by T7 RNA polymerase in the presence of cyanine 3-CTP for the CTL sample (green fluorescence) and cyanine 5-CTP for the PPAR-γ y modulator sample (red fluorescence). The two-labelled cRNAs were mixed, hybridized on the same array (G4851A Agilent 8×44K) and then scanned (with an Agilent G2505B scanner). Fluorescence was visualized after laser excitation and the relative intensities of the two fluorophores were expressed as a ratio, in order to yield the over- or under-expression status of each gene (using GeneSpring software (Agilent)). This analysis was performed for each PPAR-γ modulator.

The test system of the next data set is Caco-2 cells. As to the kind of experiment: Glucose uptake assay (2-DG6P) in Caco-2 cells. The note with it: 1 μM, 24 h. The class given is cell-based, human. On the procedure:
Glucose uptake was evaluated by using the glucose uptake colorimetric assay kit (Sigma-Aldrich) according to the manufacturer's instructions. Briefly, Caco-2 cells were seeded into a 96-well plate at a density of 30,000 cells per well. Cells were serum deprived for 16 hours prior to stimulation in order to synchronize the cells. Cells were treated with GED (1 mM) or pioglitazone (1 μM) for 24 h. Cells were then washed 3 times with PBS and were glucose-starved by incubating with 100 μl of KRPH buffer (Krebs-Ringer-Phosphate-HEPES (KRPH) Buffer—20 mM HEPES, 5 mM KH2PO4, 1 mM MgSO4, 1 mM CaCl2, 136 mM NaCl, and 4.7 mM KCl, pH 7.4) containing 2% BSA for 40 minutes. 10 μl of 2-deoxyglucose (2-DG; 10 mM) was then added and incubation was continued for 20 minutes. 2-DG is taken up by the cells and phosphorylated by hexokinase to 2-DG6P, which cannot be further metabolized and accumulates in cells. Following incubation, cells were washed 3 times with PBS and lysed with 80 μl of the extraction buffer provided. The amount of 2-DG6P (which is directly proportional to glucose uptake by the cells) was determined by a colorimetric detection assay according to the manufacturer's protocol.

A further data set relates to LCT activity. In words: Lactase activity in Caco-2 cells (glucose oxidase method). The class given is cell-based, human. The method, then:
(§5) Lactase activity was evaluated by using a glucose oxidase method (Glucose Assay Kit, Sigma). This lactase assay is based on the measurement of the amount of glucose produced following the action of lactase by incubating samples with a lactose buffer solution (0.056 mol/l lactose in a 0.1 mol/l Na-maleate buffer). For Caco-2 cells, lactase activity was determined directly from the cell monolayer. After extensive washing, the cell monolayer was incubated with lactose buffer for one hour at 37° C. The supernatant was recovered, 50 μl were diluted with 100 μl of glucose oxidase reagent and incubated at 37° C. for 1 hour. The reaction was stopped with 100 μl of H2SO4 and read by spectrophotometry at 450 nm. When lactase activity was determined from intestinal sample, tissue samples were first dounce-homogenized in 0.9% NaCl on crushed ice. These homogenates were then diluted in 0.9% NaCl ( 1/500) and 50 μl of dilution were incubated with lactose buffer and used to determine lactase activity. For each experiment, the background attributed to the remaining glucose in the samples was measured by incubating cells or cell extracts in lactose-free buffer.

The subject of a further data set is PPARγ mRNA. As to the kind of experiment: PPARγ mRNA in duodenum and jejunum of rats after 5 days oral gavage. Format: in vivo, Sprague Dawley rats. The note with it: 200 mg/kg/day oral gavage 5 days. On the procedure: as §4
(§6) To determine whether CLA induces LCT expression and activity in vivo, Sprague Dawley rats were fed a control diet and administered either carboxymethyl cellulose (CMC; 0.5%), CLA, or GED for 5 days, after which levels of PPARγ mRNA, LCT mRNA, and LCT activity were measured. CLA was administered at 200 mg/kg/day by oral gavage, and GED was administered at 30 mg/kg/day by oral gavage (FIG. 21A).

Another data set deals with LCT. As to the kind of experiment: LCT mRNA and LCT activity in duodenum and jejunum of rats after 5 days oral gavage. The class given is in vivo, Sprague Dawley rats. The note with it: oral gavage 5 days, GED 30 mg/kg/day, CLA 200 mg/kg/day. The method, then: as §4, §5, §6
Data set [1] has as its system LCT in PPARγ knock-down Caco-2 cells. In words: LCT expression and activity in PPARγ knock-down Caco-2 cells (ShPPAR). The note with it: ShPPAR vs ShLuc Caco-2 cells, 250-1000 μM. The class given is cell-based, human. The method, then: as §4
Lactase activity was evaluated by using a glucose oxidase method (Glucose Assay Kit, Sigma). […] For Caco-2 cells, lactase activity was determined directly from the cell monolayer. […] The reaction was stopped with 100 μl of H2SO4 and read by spectrophotometry at 450 nm. When lactase activity was determined from intestinal sample, tissue samples were first dounce-homogenized in 0.9% NaCl on crushed ice. […] For each experiment, the background attributed to the remaining glucose in the samples was measured by incubating cells or cell extracts in lactose-free buffer. […]

Entries after “also recorded” stand apart in the source; their conditions may differ.

For `O=C(Nc1ccccc1)c1cc([N+](=O)[O-])ccc1Cl` [GW9662], in the data set on LCT mRNA (GED plus GW9662), the “ability of GED to induce increased LCT mRNA expression in the presence of the antagonist” value is “markedly reduced”.

Regarding `CCc1ccc(CCOc2ccc(CC3SC(=O)NC3=O)cc2)nc1` (stereo not drawn) [Pioglitazone, pioglitazone], the “Fold Lactase RNA” value came to 17.9 fold in the data set with LCT gene (1 μM) and 17.93 fold with LCT gene (1 μM, listed as Pio). Besides, the “glucose uptake of Caco-2 cells” value in the data set with Caco-2 cells is “did not significantly alter”. Moreover, in the data set with LCT activity (Caco-2 cells, 1 μM, vs DMSO), the “LCT activity compared to untreated cells” value was greater than 2 fold.

For `Nc1ccc(O)c(C(=O)O)c1` [5ASA, 5-aminosalicylic acid], the “Fold Lactase RNA” value with LCT gene (30 mM) was 8.7 fold. Also, the “LCT mRNA expression relative to control (qPCR)” value in the data set on LCT mRNA (30 mM) was “Significant increases; also recorded: induction”. Moreover, the “LCT activity relative to control cells” value in the data set on LCT activity (Caco-2 cells, 30 mM) is recorded as “not”.

Regarding `CCCCC/C=C\C=C\CCCCCCCCC(=O)O` [CLA, trans-10, cis-12 conjugated linoleic acid (CLA) isomer], in the data set on PPARγ mRNA, the “PPARγ mRNA expression levels in duodenum relative to CMC control” value was “significant increase” and the “PPARγ mRNA expression levels in jejunum relative to CMC control” value was “significant increase”. For the same molecule, in the data set with LCT, the “LCT activity in duodenal tissue compared to CMC control” value is reported as “significant increase”, the “LCT mRNA expression in duodenal tissue relative to CMC control” value is given as “significant increase” and the “LCT mRNA expression in jejunal tissue relative to CMC control” value was “not”. In data set [1], the “CLA-dependent induction of LCT activity in PPARγ knock-down cells” value is on record as “strongly compromised” and the “CLA-dependent induction of LCT expression in PPARγ knock-down cells” value was “strongly compromised”. Besides, in the data set with LCT mRNA (1 mM), the “LCT mRNA expression relative to control (qPCR)” value is “as efficiently as 1 mM GED”. Moreover, the “increase in LCT activity over control levels, compared to 1 mM GED” value in the data set with LCT activity (Caco-2 cells, 1 mM) amounted to 2 fold. In the data set with LCT activity (concentrations of 100 mM or more), the “LCT activity in Caco-2 cells” value was “significantly increased”.
